Measurements taken from ChEMBL document CHEMBL2029327, “Synthetic menthyl α/β-(1→6)-diglucopyranosides-induced cell death in human leukemia cells is dependent on caspases” (Bioorg Med Chem Lett, 2012).
Calls of active or inactive are those of the source. No cut-off for these calls is given here.

Legend:
U-937 [1] = test: Induction of apoptosis in human U937 cells assessed as cleavage of procaspase 9 at 10 to 30 uM after 24 hrs by Western blot analysis; type: functional, cell-based
HL-60 [2] = test: Induction of apoptosis in human HL60 cells assessed as increase in caspase 8-mediated cleavage of IETD-pNA at 30 uM after 24 hrs; type: functional, cell-based
HL-60 [3] = test: Induction of apoptosis in human HL60 cells assessed as increase in caspase 3/7-mediated cleavage of DEVD-pNA at 30 uM after 24 hrs relative to control; type: functional
U-937 [4] = test: Induction of apoptosis in human U937 cells assessed as cleavage of procaspase 3 at 10 to 30 uM after 24 hrs by Western blot analysis; type: functional, cell-based
U-937 [5] = test: Induction of apoptosis in human U937 cells assessed as change in Bcl-2 protein level at 10 to 30 uM after 24 hrs by Western blot analysis; type: functional, cell-based
HL-60 [6] = test: Cytotoxicity against human HL60 cells assessed as morphological changes at 10 uM after 24 hrs by inverted phase-contrast microscopic analysis; type: functional, cell-based
HL-60 [7] = test: Induction of apoptosis in human HL60 cells assessed as decrease in Bid protein level at 10 to 30 uM after 24 hrs by Western blot analysis; type: functional, cell-based
HL-60 [8] = test: Induction of apoptosis in human HL60 cells assessed as increase in chromatin condensation at 10 uM after 24 hrs by Hoechst staining-based flow cytometric analysis; type: functional, cell-based
HL-60 [9] = test: Induction of apoptosis in human HL60 cells assessed as decrease in ROS level up to 12 hrs by H2-DCF-DA dye-based flow cytometric analysis; type: functional, cell-based
U-937 [10] = test: Cytotoxicity against human U937 cells after 72 hrs by MTT assay; type: functional, cell-based; details: for IC50: U-937, 72 h
U-937 [11] = test: Induction of apoptosis in human U937 cells assessed as increase in chromatin condensation at 10 uM after 24 hrs by Hoechst staining-based flow cytometric analysis; type: functional, cell-based
U-937 [12] = test: Induction of apoptosis in human U937 cells assessed as release of cytochrome c release from mitochondria at 10 to 30 uM after 24 hrs by Western blot analysis; type: functional, cell-based
HL-60 [13] = test: Cell cycle in human HL60 cells at 30 uM after 24 hrs by flow cytometric analysis in presence of 100 uM caspase inhibition Z-VAD-fmk; type: functional, cell-based
U-937 [14] = test: Cytotoxicity against human U937 cells assessed as morphological changes at 10 uM after 24 hrs by inverted phase-contrast microscopic analysis; type: functional, cell-based
U-937 [15] = test: Induction of apoptosis in human U937 cells assessed as increase in caspase 3/7-mediated cleavage of DEVD-pNA at 30 uM after 24 hrs relative to control; type: functional
MOLT-3 [16] = test: Induction of apoptosis in human MOLT3 cells assessed as increase in caspase 3/7-mediated cleavage of DEVD-pNA at 30 uM after 24 hrs relative to control; type: functional
HL-60 [17] = test: Induction of apoptosis in human HL60 cells assessed as cleavage of procaspase 7 at 10 to 30 uM after 24 hrs by Western blot analysis; type: functional, cell-based
MOLT-3 [18] = test: Induction of apoptosis in human MOLT3 cells assessed as […] hydrolysis of chromatin at 10 uM after 24 hrs by agarose gel electrophoretic analysis; type: functional, cell-based
HL-60 [19] = test: Induction of apoptosis in human HL60 cells assessed as release of cytochrome c release from mitochondria at 10 to 30 uM after 24 hrs by Western blot analysis; type: functional, cell-based
HL-60 [20] = test: Cytotoxicity against human HL60 cells after 72 hrs by MTT assay; type: functional, cell-based; details: for IC50: HL-60, 72 h
HL-60 [21] = test: Induction of apoptosis in human HL60 cells assessed as cleavage of procaspase 9 at 10 to 30 uM after 24 hrs by Western blot analysis; type: functional, cell-based
U-937 [22] = test: Induction of apoptosis in human U937 cells assessed as cleavage of procaspase 7 at 10 to 30 uM after 24 hrs by Western blot analysis; type: functional, cell-based
U-937 [23] = test: Induction of apoptosis in human U937 cells assessed as decrease in Bid protein level at 10 to 30 uM after 24 hrs by Western blot analysis; type: functional, cell-based
HL-60 [24] = test: Induction of apoptosis in human HL60 cells assessed as increase in Bax protein level at 10 to 30 uM after 24 hrs by Western blot analysis; type: functional, cell-based
MCF7 [25] = test: Cytotoxicity against human MCF7 cells assessed as morphological changes at 10 uM after 24 hrs by inverted phase-contrast microscopic analysis; type: functional, cell-based
U-937 [26] = test: Induction of apoptosis in human U937 cells assessed as increase in caspase 8-mediated cleavage of IETD-pNA at 30 uM after 24 hrs; type: functional, cell-based
MOLT-3 [27] = test: Induction of apoptosis in human MOLT3 cells assessed as increase in caspase 8-mediated cleavage of IETD-pNA at 30 uM after 24 hrs; type: functional, cell-based
U-937 [28] = test: Induction of apoptosis in human U937 cells assessed as increase in apoptotic cells at 30 uM after 24 hrs by propidium iodide staining-based flow cytometric analysis relative to control; type: functional
HL-60 [29] = test: Induction of apoptosis in human HL60 cells assessed as increase in hypodiploid cells at 30 uM after 24 hrs by propidium iodide staining-based flow cytometric analysis in presence of 100 uM caspase inhibition Z-VAD-fmk; type: functional, cell-based
HL-60 [30] = test: Induction of apoptosis in human HL60 cells assessed as cleavage of procaspase 6 at 10 to 30 uM after 24 hrs by Western blot analysis; type: functional, cell-based
MOLT-3 [31] = test: Cytotoxicity against human MOLT3 cells assessed as reduction in cell number at 10 uM after 24 hrs by inverted phase-contrast microscopic analysis; type: functional, cell-based
MOLT-3 [32] = test: Induction of apoptosis in human MOLT3 cells assessed as increase in caspase 9-mediated cleavage of LEHD-pNA at 30 uM after 24 hrs; type: functional, cell-based
HL-60 [33] = test: Induction of apoptosis in human HL60 cells assessed as […] hydrolysis of chromatin at 10 uM after 24 hrs by agarose gel electrophoretic analysis; type: functional, cell-based
MCF7 [34] = test: Cytotoxicity against human MCF7 cells after 72 hrs by MTT assay; type: functional, cell-based; details: for IC50: MCF7, 72 h
MOLT-3 [35] = test: Cytotoxicity against human MOLT3 cells assessed as morphological changes at 10 uM after 24 hrs by inverted phase-contrast microscopic analysis; type: functional, cell-based
U-937 [36] = test: Induction of apoptosis in human U937 cells assessed as increase in caspase 9-mediated cleavage of LEHD-pNA at 30 uM after 24 hrs; type: functional, cell-based
U-937 [37] = test: Induction of apoptosis in human U937 cells assessed as increase in Bax protein level at 10 to 30 uM after 24 hrs by Western blot analysis; type: functional, cell-based
HL-60 [38] = test: Cytotoxicity against human HL60 cells assessed as reduction in cell number at 10 uM after 24 hrs by inverted phase-contrast microscopic analysis; type: functional, cell-based
U-937 [39] = test: Induction of apoptosis in human U937 cells assessed as […] hydrolysis of chromatin at 10 uM after 24 hrs by agarose gel electrophoretic analysis; type: functional, cell-based
HL-60 [40] = test: Induction of apoptosis in human HL60 cells assessed as increase in apoptotic cells at 30 uM after 24 hrs by propidium iodide staining-based flow cytometric analysis relative to control; type: functional
HL-60 [41] = test: Induction of apoptosis in human HL60 cells assessed as change in Bcl-2 protein level at 10 to 30 uM after 24 hrs by Western blot analysis; type: functional, cell-based
U-937 [42] = test: Induction of apoptosis in human U937 cells assessed as cleavage of procaspase 6 at 10 to 30 uM after 24 hrs by Western blot analysis; type: functional, cell-based
U-937 [43] = test: Cytotoxicity against human U937 cells assessed as reduction in cell number at 10 uM after 24 hrs by inverted phase-contrast microscopic analysis; type: functional, cell-based
HL-60 [44] = test: Induction of apoptosis in human HL60 cells assessed as cleavage of procaspase 3 at 10 to 30 uM after 24 hrs by Western blot analysis; type: functional, cell-based
MOLT-3 [45] = test: Induction of apoptosis in human MOLT3 cells assessed as increase in chromatin condensation at 10 uM after 24 hrs by Hoechst staining-based flow cytometric analysis; type: functional, cell-based
MOLT-3 [46] = test: Cytotoxicity against human MOLT3 cells after 72 hrs by MTT assay; type: functional, cell-based; details: for IC50: MOLT-3, 72 h
HL-60 [47] = test: Induction of apoptosis in human HL60 cells assessed as increase in caspase 9-mediated cleavage of LEHD-pNA at 30 uM after 24 hrs; type: functional, cell-based

## CC(C)[C@H]1CC[C@H](C)C[C@@H]1O[C@@H]1O[C@H](CO[C@@H]2O[C@H](COC(=O)c3ccc(Br)cc3)[C@@H](OC(=O)c3ccc(Br)cc3)[C@H](O)[C@H]2O)[C@@H](O)[C@H](O)[C@H]1O
U-937 [1]
  Activity: Active
HL-60 [2]
  Activity: Active
HL-60 [3]
  fold change (FC): >7
U-937 [4]
  Activity: Active
U-937 [5]
  Activity: inactive
HL-60 [6]
  Activity: Active
HL-60 [7]
  Activity: Active
HL-60 [8]
  Activity: Active
HL-60 [9]
  Activity: inactive
U-937 [10]
  Activity: Dose-dependent effect
  IC50: 14.1 µM
U-937 [11]
  Activity: Active
U-937 [12]
  Activity: Active
HL-60 [13]
  Activity: inactive
U-937 [14]
  Activity: Active
U-937 [15]
  fold change (FC): >7
MOLT-3 [16]
  fold change (FC): >7
HL-60 [17]
  Activity: Active
MOLT-3 [18]
  Activity: Active
HL-60 [19]
  Activity: Active
HL-60 [20]
  Activity: Dose-dependent effect
  IC50: 14.9 µM
HL-60 [21]
  Activity: Active
U-937 [22]
  Activity: Active
U-937 [23]
  Activity: Active
HL-60 [24]
  Activity: Active
MCF7 [25]
  Activity: Active
U-937 [26]
  Activity: Active
MOLT-3 [27]
  Activity: Active
U-937 [28]
  Activity: 23.2%
HL-60 [29]
  Activity: inactive
HL-60 [30]
  Activity: Active
MOLT-3 [31]
  Activity: Active
MOLT-3 [32]
  Activity: Active
HL-60 [33]
  Activity: Active
MCF7 [34]
  Activity: Dose-dependent effect
  IC50: 16 µM
MOLT-3 [35]
  Activity: Active
U-937 [36]
  Activity: Active
U-937 [37]
  Activity: Active
HL-60 [38]
  Activity: Active
U-937 [39]
  Activity: Active
HL-60 [40]
  Activity: 56.9%
HL-60 [41]
  Activity: inactive
U-937 [42]
  Activity: Active
U-937 [43]
  Activity: Active
HL-60 [44]
  Activity: Active
MOLT-3 [45]
  Activity: Active
MOLT-3 [46]
  Activity: Dose-dependent effect
  IC50: 12.6 µM
HL-60 [47]
  Activity: Active

## CC(C)[C@@H]1CC[C@@H](C)C[C@H]1OC1O[C@H](CO[C@@H]2O[C@H](COC(=O)c3ccc(Br)cc3)[C@@H](OC(=O)c3ccc(Br)cc3)[C@H](O)[C@H]2O)[C@@H](O)[C@H](O)[C@H]1O (single isomer, unassigned)
HL-60 [6]
  Activity: Active
HL-60 [8]
  Activity: Active
U-937 [10]
  Activity: Dose-dependent effect
  IC50: 5.8 µM
U-937 [11]
  Activity: Active
U-937 [14]
  Activity: Active
MOLT-3 [18]
  Activity: Active
HL-60 [20]
  Activity: Dose-dependent effect
  IC50: 7 µM
MCF7 [25]
  Activity: Active
MOLT-3 [31]
  Activity: Active
HL-60 [33]
  Activity: Active
MCF7 [34]
  Activity: Dose-dependent effect
  IC50: 12.1 µM
MOLT-3 [35]
  Activity: Active
HL-60 [38]
  Activity: Active
U-937 [39]
  Activity: Active
U-937 [43]
  Activity: Active
MOLT-3 [45]
  Activity: Active
MOLT-3 [46]
  Activity: Dose-dependent effect
  IC50: 10.6 µM

## CC(C)[C@@H]1CC[C@@H](C)C[C@H]1O[C@@H]1O[C@H](CO[C@@H]2O[C@H](COC(=O)c3ccc(Br)cc3)[C@@H](OC(=O)c3ccc(Br)cc3)[C@H](O)[C@H]2O)[C@@H](O)[C@H](O)[C@H]1O
HL-60 [6]
  Activity: Active
HL-60 [8]
  Activity: Active
U-937 [10]
  Activity: Dose-dependent effect
  IC50: 9.2 µM
U-937 [11]
  Activity: Active
U-937 [14]
  Activity: Active
MOLT-3 [18]
  Activity: Active
HL-60 [20]
  Activity: Dose-dependent effect
  IC50: 7 µM
MCF7 [25]
  Activity: Active
MOLT-3 [31]
  Activity: Active
HL-60 [33]
  Activity: Active
MCF7 [34]
  Activity: Dose-dependent effect
  IC50: 12.9 µM
MOLT-3 [35]
  Activity: Active
HL-60 [38]
  Activity: Active
U-937 [39]
  Activity: Active
U-937 [43]
  Activity: Active
MOLT-3 [45]
  Activity: Active
MOLT-3 [46]
  Activity: Dose-dependent effect
  IC50: 11.4 µM
